The values that follow come from paper PMC11184554, “Nature-Inspired Gallinamides Are Potent Antischistosomal Agents: Inhibition of the Cathepsin B1 Protease Target and Binding Mode Analysis” (ACS Infectious Diseases, 2024).

One experiment concerns recombinant SmCB1. Briefly: Kinetic inhibition assay with recombinant SmCB1 (k2nd). The note with it: for SmCB1 inhibition k2nd: second-order rate constant (kinact/Ki), substrate Cbz–Phe–Arg–AMC, pH 5.5, 37 °C, mean ± SE; for decrease in inhibition potency vs 8: ratio of k2nd values, range over the compounds named. The experiment is classed as biochemical, S. mansoni. On the procedure:
Gallinamide A and a series of its 18 derivatives were evaluated in vitro as inhibitors of SmCB1 to explore the binding specificities of the subsites in the enzyme’s active site. The gallinamide A inhibitor scaffold can be defined by positions P4 through P1′ (Schechter and Berger nomenclature[37]), which were assigned according to the binding mode analysis (see the crystallographic section below). The substituents R4, R1, and R1′ introduced on the scaffold (Table 2) are numbered according to the respective positions P4, P1, and P1′. The compounds’ second-order rate constants (k2nd) were determined using a kinetic inhibition assay with recombinant SmCB1 and the substrate, Cbz–Phe–Arg–AMC.
Inhibition measurements were performed in duplicate in 96-well microplates (100 μL assay volume) at 37 °C. SmCB1 (40 pM) was added to a mixture of the fluorogenic substrate Cbz–Phe–Arg–AMC (25 μM) and an inhibitor (0–100 μM) in 0.1 M sodium acetate, pH 5.5, containing 2.5 mM dithiothreitol and 0.01% (w/v) BRIJ 35. Substrate hydrolysis was monitored in an Infinite M1000 microplate reader (Tecan) at excitation and emission wavelengths of 360 and 465 nm, respectively, for up to 150 min. An observed first-order rate constant, kobs, was calculated at each inhibitor concentration by fitting the progress curve to the equation P = vi/kobs(1 – exp(−kobst)) + d where P is the product formation, t is the reaction time, vi is the initial velocity, and d is the offset. […] The second-order rate constant, k2nd, (and SE value) was determined by fitting the linear equation kobs = (k2nd[I])/(1 + [S]/Km), where [S] is the substrate concentration, [I] is the inhibitor concentration, and KM is the Michaelis–Menten constant. The KM value determined for SmCB1 was 25 μM. […] To determine IC50 values, SmCB1 (40 pM) was preincubated with the inhibitor (0–100 μM) for 30 min under assay conditions as described above, followed by the addition of the fluorogenic substrate Cbz–Phe–Arg–AMC (20 μM). Substrate hydrolysis was monitored for 30 min in a microplate reader as described above. The IC50 values were determined by nonlinear regression using GraFit software (Erithacus Software).

Experiment [1] has as its system S. mansoni newly transformed schistosomula (NTS). Description: Phenotypic screen with newly transformed schistosomula (NTS). The experiment is classed as cell-based. On the procedure: The same 19 gallinamides were screened for bioactivity against S. mansoni newly transformed schistosomula (NTS), the postinvasive parasite stage that feeds on host blood.[40] In this primary assay, the NTS were exposed to 1 and 10 μM compounds for 3 days, and the resulting phenotypic responses were graded from 0 through 4, i.e., the least to the most severe (Table 2 and Table S1). […] The effects were more pronounced after 72 h, and when the higher, 10 μM, compound concentration was used (Table S1). […] Also, compared to gallinamide A and its analogs, 3 has an additional N-terminal N-acetamide modification that further reduces bioactivity (Table 2).
Phenotypic screens employed S. mansoni newly transformed schistosomula (NTS) and adults and were carried out as described previously.[18]−[20],[42] NTS were prepared by mechanically transforming infective larvae (cercariae).[40],[42] NTS (200–300 parasites) were incubated in flat-bottomed 96-well plates in 200 μL of Basch Medium 169 containing 5% (v/v) FBS, 100 U mL^–1 penicillin and 100 μg mL^–1 streptomycin (complete Basch medium)[75] at 5% CO2 and 37 °C.[76],[77] Inhibitors were added at final concentrations of 1 and 10 μM, and changes in phenotypes were observed under an inverted microscope every 24 h for up to 72 h.
A constrained nomenclature of “descriptors”[39],[42] was used to record the multiple and dynamic changes in movement, shape, and translucence that the schistosome parasite is capable of (Table S1 for NTS and Table S3 for adults). These descriptors were then converted into an ordinal “severity score” system ranging from 0 (no effect) to 4 (maximum effect), which allows for the relative comparison of compound effects.

Where [2] appears, read: 1 μM compound, 24 h, scale 0 (no effect) to 4 (most severe).
Setting [3] is: 1 μM compound, 48 h, scale 0 to 4.
Where [4] appears, read: 1 μM compound, 72 h, scale 0 to 4.
Setting [5] is: 10 µM compound, 24 h, scale 0 to 4.
Where [6] appears, read: 10 µM compound, 48 h, scale 0 to 4.
Where [7] appears, read: 10 µM compound, 72 h, scale 0 to 4.
[8] abbreviates: Phe in R1′ changed from S to R configuration.
Where [9] appears, read: Phe in R1 changed from S to R configuration.

Structures are written as SMILES.

Take `CCC(C)C(C(=O)OC(CC(C)C)C(=O)NC(CC(C)C)C(=O)NC(C=CC(=O)N1C(=O)C=C(OC)C1CC(C)C)Cc1ccccc1)N(C)C` (stereo not drawn) [compound 10]: the “SmCB1 inhibition k2nd” value in the experiment on recombinant SmCB1 is recorded as 537 ± 48 M^–1·s^–1. Further, the schistosomula severity score was determined as 0 in experiment [1] (setting [2]); 2 in experiment [1] (setting [3]); 4 in experiment [1] (setting [4]); 0 in experiment [1] (setting [5]); 4 in experiment [1] (setting [6]); 4 in experiment [1] (setting [7]). Further, the schistosomula phenotype descriptors entry in experiment [1] (1 µM compound, 48 h) is “Dark, R”.

`COC1=CC(=O)N(C(=O)/C=C/[C@H](Cc2ccccc2)NC(=O)[C@H](CC(C)C)NC(=O)[C@H](CC(C)C)OC(=O)[C@H](C(C)C)N(C)C)[C@H]1CC(C)C` [compound 11]: the “SmCB1 inhibition k2nd” value in the experiment with recombinant SmCB1 worked out at 295 ± 17 M^–1·s^–1. The schistosomula severity score is given as 1 in experiment [1] (setting [2]); 3 in experiment [1] (setting [3]); 4 in experiment [1] (setting [4]); 1 in experiment [1] (setting [5]); 4 in experiment [1] (setting [6]); 4 in experiment [1] (setting [7]). In experiment [1] (1 µM compound, 48 h), the schistosomula phenotype descriptors entry is on record as “Dark, R, S”.

In the case of `COC1=CC(=O)N(C(=O)/C=C/[C@H](Cc2ccccc2)NC(=O)[C@H](CC(C)C)NC(=O)[C@H](CC(C)C)OC(=O)[C@H](Cc2ccccc2)N(C)C)[C@H]1C` [compound 12], the “decrease in inhibition potency vs 8” value in the experiment with recombinant SmCB1 is reported as 4.2–49 fold. For the same molecule, the “SmCB1 inhibition k2nd” value in the experiment on recombinant SmCB1 is given as 212 ± 30 M^–1·s^–1. For the same molecule, the schistosomula severity score in experiment [1] (setting [2]) was 1; in experiment [1] (setting [3]), 2; in experiment [1] (setting [4]), 4; in experiment [1] (setting [5]), 3; in experiment [1] (setting [6]) it was 4; in experiment [1] (setting [7]), 4. The schistosomula phenotype descriptors entry in experiment [1] (1 µM compound, 48 h) is recorded as “Dark, R”; in experiment [1] (10 µM compound, 24 h), “Dark, R, S”.

As for `COC1=CC(=O)N(C(=O)/C=C/[C@H](Cc2ccccc2)NC(=O)[C@H](CC(C)C)NC(=O)[C@H](CC(C)C)OC(=O)[C@H](Cc2ccccc2)N(C)C)[C@@H]1Cc1ccccc1` [compound 13], in the experiment on recombinant SmCB1 (setting [8]), the “improvement of inhibition vs 17” value turned out to be 6 fold. Moreover, the “SmCB1 inhibition k2nd” value in the experiment on recombinant SmCB1 was found to be 109 ± 2 M^–1·s^–1. For the same molecule, the schistosomula severity score was determined as 0 in experiment [1] (setting [2]); 2 in experiment [1] (setting [3]); 4 in experiment [1] (setting [4]); 2 in experiment [1] (setting [5]); 4 in experiment [1] (setting [6]); 4 in experiment [1] (setting [7]). Also, in experiment [1] (10 µM compound, 24 h), the schistosomula phenotype descriptors result is listed as “Dark, R”.

Regarding `CCC(C)C(C(=O)OC(CC(C)C)C(=O)NC(CC(C)C)C(=O)NC(C=CC(=O)N1C(=O)C=C(OC)C1Cc1ccccc1)Cc1ccccc1)N(C)C` (stereo not drawn) [compound 14], the “decrease in inhibition potency vs 8” value in the experiment on recombinant SmCB1 is reported as 4.2–49 fold. Besides, the “SmCB1 inhibition k2nd” value in the experiment with recombinant SmCB1 worked out at 54.5 ± 1.3 M^–1·s^–1. In addition, the schistosomula severity score in experiment [1] (setting [2]) is reported as 0; in experiment [1] (setting [3]) it was 3; in experiment [1] (setting [4]), 4; in experiment [1] (setting [5]), 1; in experiment [1] (setting [6]) it was 4; in experiment [1] (setting [7]), 4.

`CCC(C)C(C(=O)OC(CC(C)C)C(=O)NC(CC(C)C)C(=O)NC(C=CC(=O)N1C(=O)C=C(OC)C1Cc1ccccc1)Cc1ccccc1)N(C)C` (stereo not drawn) [compound 15]: the “decrease in inhibition vs 7” value in the experiment with recombinant SmCB1 (setting [9]) stood at 23 fold. For the same molecule, the “improvement of inhibition vs 18” value in the experiment on recombinant SmCB1 (setting [8]) is given as 2.6 fold. Besides, the “SmCB1 inhibition k2nd” value in the experiment with recombinant SmCB1 was 41.6 ± 1.6 M^–1·s^–1. For the same molecule, the schistosomula severity score in experiment [1] (setting [2]) is listed as 0; in experiment [1] (setting [3]), 3; in experiment [1] (setting [5]), 2; in experiment [1] (setting [6]), 4; in experiment [1] (setting [7]), 4. In addition, the schistosomula phenotype descriptors result in experiment [1] (10 µM compound, 24 h) is listed as “Dark, R”.

For `CCC(C)C(C(=O)OC(CC(C)C)C(=O)NC(CC(C)C)C(=O)NC(C)CCC(=O)N1C(=O)C=C(OC)C1C)N(C)C` (stereo not drawn) [compound 16], the “decrease in k2nd” value with recombinant SmCB1 (absence of a double bond in the acrylamide group) is reported as 2 orders of magnitude. For the same molecule, in the experiment with recombinant SmCB1, the “SmCB1 inhibition k2nd” value was found to be 36.9 ± 0.3 M^–1·s^–1. The schistosomula severity score came to 0 in experiment [1] (setting [2]); 0 in experiment [1] (setting [3]); 0 in experiment [1] (setting [4]); 0 in experiment [1] (setting [5]); 2 in experiment [1] (setting [6]); 2 in experiment [1] (setting [7]). Besides, the schistosomula phenotype descriptors entry in experiment [1] (10 µM compound, 48 h) is on record as “Dark, R”; in experiment [1] (10 µM compound, 72 h) it was “Dark, R”.

Take `COC1=CC(=O)N(C(=O)/C=C/[C@H](Cc2ccccc2)NC(=O)[C@H](CC(C)C)NC(=O)[C@H](CC(C)C)OC(=O)[C@H](Cc2ccccc2)N(C)C)[C@H]1Cc1ccccc1` [compound 17]: in the experiment with recombinant SmCB1, the “decrease in inhibition potency vs 8” value is 4.2–49 fold. Also, in the experiment on recombinant SmCB1, the “SmCB1 inhibition k2nd” value is 18.2 ± 0.2 M^–1·s^–1. The schistosomula severity score in experiment [1] (setting [2]) was found to be 0; in experiment [1] (setting [3]), 0; in experiment [1] (setting [4]) it was 4; in experiment [1] (setting [5]) it was 1; in experiment [1] (setting [6]), 4; in experiment [1] (setting [7]), 4.

For the molecule `CCC(C)C(C(=O)OC(CC(C)C)C(=O)NC(CC(C)C)C(=O)NC(C=CC(=O)N1C(=O)C=C(OC)C1Cc1ccccc1)Cc1ccccc1)N(C)C` (stereo not drawn) [compound 18], in the experiment with recombinant SmCB1 (setting [9]), the “decrease in inhibition vs 14” value is 3.4 fold. Moreover, the “SmCB1 inhibition k2nd” value with recombinant SmCB1 is on record as 16.0 ± 0.2 M^–1·s^–1. The schistosomula severity score in experiment [1] (setting [2]) is reported as 0; in experiment [1] (setting [3]) it was 0; in experiment [1] (setting [4]) it was 0; in experiment [1] (setting [5]), 1; in experiment [1] (setting [6]) it was 4; in experiment [1] (setting [7]), 4.
